Source: patent US20120028887A1, “L[…] HIV-1” (priority 2009, published 2012)
Residues, ends and D or L forms follow the SMILES beside them. No end group written: not given here. *: point of attachment. Palmitoyl = CCCCCCCCCCCCCCCC(=O)*; C16 = C16 lipid

Columns and labels:
[1] = tested on: Jurkat E6-1 cells and Jurkat HXBc2 cells expressing HIV-1 HXBc2 Rev and ENV proteins; assay type: cell-based; settings: for IC50: read-out: IC50 in cell-cell fusion inhibition assay; for IC50 (nM) In cell-cell fusion assay: Table 4
Experimental: Jurkat E6-1 cells were from Dr. Arthur Weiss (Weiss A et al. 1984, J. Immunol. 133; 123-8), and Jurkat HXBc2 (4) cells expressing HIV-1 HXBc2 Rev and ENV proteins were from Dr. Joseph Sodroski (Cao, J. et al. 1996, J. Virol. 70; 1340-54). Cells were cultured every 3 to 4 days, and maintained in RPMI-1640 supplemented with the appropriate antibiotics at 37° C. with 5% CO2 in a humidified incubator. For ENV expression, Jurkat HXBc2 (4) cells were transferred to medium without tetracycline three days prior to the experiments. […] Cell-Cell Fusion Inhibition Assay—The protocol utilizing Jurkat E6-1 and Jurkat HXBc2 cells for a cell-cell fusion assay was previously described (Huerta L. et al. 2002, Cytometry, 47; 100-6. In short, Jurkat E6-1 and Jurkat HXBc2 cells were labeled with DiI and DiD lypophilic fluorescent probes, respectively. The two cell populations were co-incubated for 6 h in a ratio of 1:1 in the presence of different concentrations of the inhibitory peptides. Cells that co-incubated without the presence of peptides served as an optimal fusion reference. Unlabeled cells that were handled similarly served as an intrinsic fluorescence control. Cells labeled separately with DiI or DiD were used to compensate for the optimal separation of fluorescent signals. Jurkat HXBc2 cells labeled with DiI were co-incubated with Jurkat HXBc2 cells labeled with DiD for a fusion background that was subtracted from the measurements of the experiment. The following alterations were applied to the original protocol: (i) 5 ul of a 1 mg/ml DiI or DiD solution in dimethylsulfoxide (DMSO) was added to 1 ml of 5×10^6 cells/ml Jurkat E6-1 or Jurkat HXBc2 cells, respectively. (ii) Data from 150,000 events for each sample were collected on FACSort, upgraded to a FACSCalibur cell analyzer (Becton Dickinson), and further analyzed. Fitting of the data points was performed according to the equation derived from Hills' equation:

[2] = tested on: HIV-1 HXB2; assay type: cell-based; settings: Table 5
Experimental: For the fitting, we uploaded the X and Y values of the raw data (after subtracting the background) into a nonlinear least squares regression (curve fitter) program that provided the IC50 value (A of the equation), as well as the c value. Virus Infectivity Assay—Fully infectious HIV-1 HXB2 concentrated virus stock was a kind gift of the AIDS Vaccine Program, SAIC. Experiments were done according to a P3 biological safety level. The infectivity of HIV-1 HXB2 was determined using the TZM-bl cell line as a reporter. Cells were added (2×10^4 cells/well) to a 96-well clear-bottomed microtiter plate with 10% serum supplemented Dulbecco's modified eagle medium (DMEM). Plates were incubated at 37° C. for 18-24 hours to allow the cells to adhere. The media was then aspirated from each well and replaced with serum free DMEM containing 40 micrograms/mL DEAE-dextran. […] Luciferase activity was analyzed using the Steady-Glo Luciferase assay kit (Promega, Madison Wis.). […] IC50 Values were calculated from the fitted curve similarly to the cell-cell fusion assay. […] The eight different possible combinations (triple, NBD, DiI, DiD, NBD+DiI, NBD+DiD, DiI+DiD, no label) were defined in the analysis software and the percentage of each one was calculated. The percentage of NBD labeling (peptide) on all cell types in relation to all available labeled cells in the system was calculated. […]

[3] = tested on: HIV-1LAI; settings: blocked infection of target cells; cited from earlier work

CCCCCCCCCCCCCCCC(=O)N[C@@H](CO)C(=O)NCC(=O)N[C@H](C(=O)N[C@@H](CC(=O)O)C(=O)N[C@@H](CCC(N)=O)C(=O)N[C@@H](CCC(=O)O)C(=O)N[C@@H](CCC(N)=O)C(=O)N[C@@H](CC(N)=O)C(=O)N[C@@H](CC(N)=O)C(=O)N[C@@H](CC(C)C)C(=O)N[C@H](C(=O)N[C@@H](CCCNC(=N)N)C(=O)N[C@@H](CC(C)C)C(=O)N[C@H](C(=O)N[C@@H](CCC(=O)O)C(=O)N[C@@H](C)C(=O)N[C@@H](CCC(N)=O)C(=O)N[C@H](C(=O)N[C@@H](Cc1c[nH]cn1)C(=O)N[C@@H](CCC(=O)O)C(=O)N[C@@H](CC(C)C)C(=O)N[C@@H](CCC(N)=O)C(=O)N[C@@H](CC(C)C)C(=O)N[C@H](C(=O)N[C@@H](CCC(N)=O)C(=O)N[C@@H](Cc1c[nH]c2ccccc12)C(=O)N[C@@H](CCCCN)C(=O)N[C@H](C(=O)N[C@@H](CCCCN)C(=O)N[C@@H](CCC(N)=O)C(=O)N[C@@H](CC(C)C)C(=O)N[C@@H](CC(C)C)C(=O)N[C@@H](C)C(=O)N[C@@H](CCCNC(=N)N)C(=O)N[C@H](C(=O)N[C@@H](CC(C)C)C(=O)N[C@@H](CCCCN)C(N)=O)[C@@H](C)CC)[C@@H](C)CC)[C@@H](C)O)[C@@H](C)CC)[C@@H](C)CC)[C@@H](C)O)[C@@H](C)CC [C16-N36 MUTe,g] (Palmitoyl-SGIDQEQNNLTRLIEAQIHELQLTQWKIKQLLARILK-NH2)
IC50 [1]: 162 ± 4 nM

CC[C@H](C)[C@H](NC(=O)CNC(=O)[C@@H](N)CO)C(=O)N[C@@H](CC(=O)O)C(=O)N[C@@H](CCC(N)=O)C(=O)N[C@@H](CCC(=O)O)C(=O)N[C@@H](CCC(N)=O)C(=O)N[C@@H](CC(N)=O)C(=O)N[C@@H](CC(N)=O)C(=O)N[C@@H](CC(C)C)C(=O)N[C@H](C(=O)N[C@@H](CCCNC(=N)N)C(=O)N[C@@H](CC(C)C)C(=O)N[C@H](C(=O)N[C@@H](CCC(=O)O)C(=O)N[C@@H](C)C(=O)N[C@@H](CCC(N)=O)C(=O)N[C@H](C(=O)N[C@@H](Cc1c[nH]cn1)C(=O)N[C@@H](CCC(=O)O)C(=O)N[C@@H](CC(C)C)C(=O)N[C@@H](CCC(N)=O)C(=O)N[C@@H](CC(C)C)C(=O)N[C@H](C(=O)N[C@@H](CCC(N)=O)C(=O)N[C@@H](Cc1c[nH]c2ccccc12)C(=O)N[C@@H](CCCCN)C(=O)N[C@H](C(=O)N[C@@H](CCCCN)C(=O)N[C@@H](CCC(N)=O)C(=O)N[C@@H](CC(C)C)C(=O)N[C@@H](CC(C)C)C(=O)N[C@@H](C)C(=O)N[C@@H](CCCNC(=N)N)C(=O)N[C@H](C(=O)N[C@@H](CC(C)C)C(=O)N[C@@H](CCCCN)C(N)=O)[C@@H](C)CC)[C@@H](C)CC)[C@@H](C)O)[C@@H](C)CC)[C@@H](C)CC)[C@@H](C)O [N36 MUTe,g, reference compound] (H-SGIDQEQNNLTRLIEAQIHELQLTQWKIKQLLARILK-NH2; N-terminus assumed)
IC50 [1]: 936 ± 36 nM

CCCCCCCCCCCCCCCC(=O)NCCCC[C@H](NC(=O)[C@H](CC(C)C)NC(=O)[C@@H](NC(=O)[C@H](CCCNC(=N)N)NC(=O)[C@H](C)NC(=O)[C@H](CC(C)C)NC(=O)[C@H](CC(C)C)NC(=O)[C@H](CCC(N)=O)NC(=O)[C@H](CCCCN)NC(=O)[C@@H](NC(=O)[C@H](CCCCN)NC(=O)[C@H](Cc1c[nH]c2ccccc12)NC(=O)[C@H](CCC(N)=O)NC(=O)[C@@H](NC(=O)[C@H](CC(C)C)NC(=O)[C@H](CCC(N)=O)NC(=O)[C@H](CC(C)C)NC(=O)[C@H](CCC(=O)O)NC(=O)[C@H](Cc1c[nH]cn1)NC(=O)[C@@H](NC(=O)[C@H](CCC(N)=O)NC(=O)[C@H](C)NC(=O)[C@H](CCC(=O)O)NC(=O)[C@@H](NC(=O)[C@H](CC(C)C)NC(=O)[C@H](CCCNC(=N)N)NC(=O)[C@@H](NC(=O)[C@H](CC(C)C)NC(=O)[C@H](CC(N)=O)NC(=O)[C@H](CC(N)=O)NC(=O)[C@H](CCC(N)=O)NC(=O)[C@H](CCC(=O)O)NC(=O)[C@H](CCC(N)=O)NC(=O)[C@H](CC(=O)O)NC(=O)[C@@H](NC(=O)CNC(=O)[C@@H](N)CO)[C@@H](C)CC)[C@@H](C)O)[C@@H](C)CC)[C@@H](C)CC)[C@@H](C)O)[C@@H](C)CC)[C@@H](C)CC)C(N)=O [N36 MUTe,g-C16] (H-SGIDQEQNNLTRLIEAQIHELQLTQWKIKQLLARILK(Palmitoyl)-NH2)
IC50 [1]: 8.8 ± 4 nM

CCCCCCCCCCCCCCCC(=O)NCCCC[C@H](NC(=O)[C@H](CCC(N)=O)NC(=O)[C@H](CC(C)C)NC(=O)[C@H](CCC(=O)O)NC(=O)[C@H](Cc1c[nH]cn1)NC(=O)[C@@H](NC(=O)[C@H](CCC(N)=O)NC(=O)[C@H](C)NC(=O)[C@H](CCC(=O)O)NC(=O)[C@@H](NC(=O)[C@H](CC(C)C)NC(=O)[C@H](CCCNC(=N)N)NC(=O)[C@@H](NC(=O)[C@H](CC(C)C)NC(=O)[C@H](CC(N)=O)NC(=O)[C@H](CC(N)=O)NC(=O)[C@H](CCC(N)=O)NC(=O)[C@H](CCC(=O)O)NC(=O)[C@H](CCC(N)=O)NC(=O)[C@H](CC(=O)O)NC(=O)[C@@H](NC(=O)CNC(=O)[C@H](CO)NC(=O)[C@H](CC(C)C)NC(=O)[C@H](CC(C)C)NC(=O)[C@H](CCC(N)=O)NC(=O)[C@@H](N)CCCNC(=N)N)[C@@H](C)CC)[C@@H](C)O)[C@@H](C)CC)[C@@H](C)CC)C(N)=O [Sh-RQLL-Mut e,g-C16] (H-RQLLSGIDQEQNNLTRLIEAQIHELQK(Palmitoyl)-NH2; N-terminus assumed)
IC50 (nM) In cell-cell fusion assay [1]: Not active

C16-HQTLSGIDQEQNNLTRLIEAQIHELQ (C16-HQTLSGIDQEQNNLTRLIEAQIHELQ-NH2) [C16-Sh-Mut e,g]
IC50 (nM) In cell-cell fusion assay [1]: Not active | IC50 ([2]; read-out: IC50 (nM) In virus-cell fusion assay): 643 ± 137 nM

C16-RQLLSGIDQEQNNLTRLIEAQIHELQ (C16-RQLLSGIDQEQNNLTRLIEAQIHELQ-NH2) [C16-Sh-RQLL-Mut e,g]
IC50 (nM) In cell-cell fusion assay [1]: Not active

HQTLSGIDQEQNNLTRLIEAQIHELQ [Sh-Mut e,g]
IC50 (nM) In cell-cell fusion assay [1]: Not active | IC50 (nM) In virus-cell fusion assay [2]: Not active

HQTLSGIDQEQNNLTRLIEAQIHELQ-C16 [Sh-Mut e,g-C16]
IC50 (nM) In cell-cell fusion assay [1]: Not active

RQLLSGIDQEQNNLTRLIEAQIHELQ [Sh-RQLL-Mut e,g]
IC50 (nM) In cell-cell fusion assay [1]: Not active

SGIVQQLNNQLRAEEANQHLEQLSVWGSKQNQARRLK(δ-NH) [N36 MUTa,d, reference compound]
IC50 in cell-cell fusion inhibition assay [1]: inactive | IC50 nM ([1]; cell-cell fusion assay, Table 3, N36 mutated peptides): Not active

enfuvirtide
EC50 against HIV-1LAI [3]: 0.5 ng/mL
